Question: Which melting point does the source give for `c1ccc(-c2nn3ccccc3c2-c2ccncc2)cc1` here?
Answer: 166 to 167 °C

Question: Which melting point does the source give for `Cc1ccc(C)c(OCCCC(C)(C)C(=O)Nc2c(F)cc(F)cc2F)c1` here?
Answer: 82 to 83 °C

Question: For `CCOC(=O)/C(=N\OCC#N)c1csc(N)n1`, which melting point is on record?
Answer: 167 to 168 °C

Question: Which melting point does the source give for `CCOC(=O)C1=C(C)NC(C)=C(C(=O)OC)C1c1cccc2ccccc12` (configuration not stated) here?
Answer: 196 to 197 °C

Question: With `CCCCCC(CO)n1cnc(NC(=O)c2ccccc2C(=O)O)c1` (configuration not stated) as the compound, how does the melting point read?
Answer: 99 to 101 °C

Question: With `C=CC[C@H]1C(=O)N[C@H]2CCN(C(=O)OCc3ccccc3)[C@@H]21` (relative stereo) as the compound, how does the melting point read?
Answer: 160 °C

Question: Which melting point does the source give for `CC(=O)Oc1cc(Cl)c(Cl)c(Cl)c1N1CC(O)CC1=O` (configuration not stated) here?
Answer: 84 to 86 °C

Question: Which melting point does the source give for `O=c1c2ccccc2nnn1CCCN1CC=C(c2c[nH]c3ccccc23)CC1` here?
Answer: 189 °C

Question: With `CCc1cc2[nH]c(=O)oc2cc1NCC1CCCOC1` (configuration not stated) as the compound, how does the melting point read?
Answer: 148 °C

Question: Which melting point does the source give for `Cc1cccc(S(=O)(=O)Nc2cccnc2Nc2ccccc2)c1` here?
Answer: 161 to 162 °C

Question: Which melting point does the source give for `CC(C)(C)OC(=O)N[C@H]1C=C[C@@H](CO)C1` here?
Answer: 68 to 70 °C

Question: For `CC(Cc1sc(Br)cc1Cl)NC(=O)c1cn(C)nc1C(F)F` (configuration not stated), which melting point is on record?
Answer: 157 to 158 °C

Question: For `Cc1ccc(C(=O)Nc2ccc(-n3nc(C(F)(F)F)cc3C(F)(F)F)cc2)cc1`, which melting point is on record?
Answer: 225 to 226 °C

Question: With `COc1ccc2cc(C(C)C(=O)OCC(=O)OCCO)ccc2c1` (configuration not stated) as the compound, how does the melting point read?
Answer: 87 to 90 °C

Question: With `COc1ccccc1CNc1ccc2cc(Nc3cccc(C)n3)ccc2n1` as the compound, how does the melting point read?
Answer: 134 °C

Question: With `CCc1nc2c(=O)[nH]c(=O)n(C)c2nc1CC` as the compound, how does the melting point read?
Answer: 218 to 222 °C

Question: For `O=C(NO)[C@H](CNS(=O)(=O)c1ccc(OCc2c(C(F)(F)F)nn3ccccc23)cc1)N1CCN(Cc2ccccc2)CC1`, which melting point is on record?
Answer: 138 °C

Question: For `COC(=O)C1=C(C)NC(C)=C(C(=O)OCCCCN(C)CCC(c2ccccc2)c2ccccc2)C1c1cccc([N+](=O)[O-])c1` (configuration not stated), which melting point is on record?
Answer: 91 to 103 °C

Question: Which melting point does the source give for `CC(C)(C)c1cc(SCCC(=O)NCC(=O)c2ccccc2)cc(C(C)(C)C)c1O` here?
Answer: 146 to 148 °C

Question: Which melting point does the source give for `CC(C)n1nc(-c2sc(NC3CCCCC3)nc2-c2ccccc2)ccc1=O` here?
Answer: 149 to 151 °C

Question: Which melting point does the source give for `CCOCCn1c(C)nc2c(N)ncc(C)c21` here?
Answer: 129 to 130 °C

Question: For `CC(C)(C)OC(=O)CCc1ccc(-c2nc(=O)c3ccccc3s2)nc1C#N`, which melting point is on record?
Answer: 196 to 197 °C

Question: Which melting point does the source give for `Cn1cnc2c1c(=O)n(CCCBr)c(=O)n2C` here?
Answer: 142 to 144 °C

Question: Which melting point does the source give for `CCOC(=O)/C=C/c1cc(-n2ncnn2)cc(C)c1N` here?
Answer: 162 to 165 °C

Question: Which melting point does the source give for `CN(C(=O)/C=C/c1ccco1)c1ccc(S(=O)(=O)NC2CCCCCC2)cc1` here?
Answer: 152 to 155 °C

Question: Which melting point does the source give for `COc1ccc(C(=O)N2CCc3cc(O)ccc3C2)cc1OC` here?
Answer: 58 to 77 °C

Question: Which melting point does the source give for `C[C@]12CCC(=O)N[C@@H]1CCc1cc(Sc3ccc4ccccc4n3)ccc12` here?
Answer: 220 to 222 °C

Question: With `CCOC(=O)C1CCCCCCC(=O)C(=O)N1` (configuration not stated) as the compound, how does the melting point read?
Answer: 129 to 130 °C

Question: For `FC(F)(F)c1nc[nH]n1`, which melting point is on record?
Answer: 89 °C

Question: With `c1ccc(Nc2nc(-c3cccnc3)nc3ccccc23)cc1` as the compound, how does the melting point read?
Answer: 173 to 178 °C

Question: Which melting point does the source give for `CCN(CC)C(=O)c1c(C(=O)c2cc3cnccc3n2S(=O)(=O)c2ccccc2)ccnc1OC` here?
Answer: 150 °C

Question: With `CCn1ncc2c(Cl)c(C=O)cnc21` as the compound, how does the melting point read?
Answer: 89 to 90 °C

Question: Which melting point does the source give for `CN1CCCC2(OCCO2)C1Cc1cccc2[nH]ccc12` (configuration not stated) here?
Answer: 181 to 186 °C

Question: Which melting point does the source give for `CC1(C)CC(SCc2c(C(F)(F)F)n[nH]c2Cl)=NO1` here?
Answer: 120 to 122 °C

Question: Which melting point does the source give for `COc1cccc(-c2nc3c([nH]2)C(C)(C)CS(=O)(=O)CC3(C)C)c1` here?
Answer: 217 to 219 °C

Question: Which melting point does the source give for `CC(C)(C)OC(=O)NCCCN1CCC(CCCCNC(N)=NC(=O)c2nc(Cl)c(N)nc2N)CC1` here?
Answer: 98 to 102 °C

Question: With `COC(=O)Cc1cc(C(=O)c2ccc(F)cc2)ccc1O` as the compound, how does the melting point read?
Answer: 173 °C

Question: For `N=C(NCCN1CCC(Nc2nc3ccccc3n2Cc2ccc(F)cc2)CC1)N[N+](=O)[O-]`, which melting point is on record?
Answer: 147 °C

Question: Which melting point does the source give for `O=[N+]([O-])c1cc(Cl)c(CO)c(Cl)c1` here?
Answer: 111 to 114 °C

Question: With `COc1ccc(N2CCN(c3ccc(N)cn3)CC2)cc1` as the compound, how does the melting point read?
Answer: 134 to 135 °C

Question: Which melting point does the source give for `CN(C)C(=O)Oc1ccc(CCl)cc1` here?
Answer: 68 °C

Question: With `CC(C)c1cc(Oc2ccccc2)cc(C2CCCCC2)c1N` as the compound, how does the melting point read?
Answer: 108 to 110 °C

Question: With `O=C1Nc2ccccc2C2=NC(CBr)CN12` (configuration not stated) as the compound, how does the melting point read?
Answer: 213 to 214 °C

Question: For `Oc1ccc(Oc2ccc(OCC(O)CCc3cccnc3)cc2)cc1` (configuration not stated), which melting point is on record?
Answer: 89 to 91 °C

Question: Which melting point does the source give for `Cn1cc(N2C=CN=CC2)ccc1=O` here?
Answer: 166 °C

Question: Which melting point does the source give for `Fc1ccc(F)c(CN2CCNc3ncc(I)cc32)c1Cl` here?
Answer: 156 to 157 °C

Question: With `COc1ccc2c(c1)N(C)C(=O)C2(C)C` as the compound, how does the melting point read?
Answer: 67 to 69 °C

Question: For `Cc1nc(N(C)C)sc1C(=O)c1ccc(Cl)c([N+](=O)[O-])c1`, which melting point is on record?
Answer: 165 to 169 °C

Question: With `FC(F)(F)C(=Cc1ccccc1)c1ccc(Cl)cc1` as the compound, how does the melting point read?
Answer: 63 to 66 °C

Question: Which melting point does the source give for `Cc1cc(C2=NOC(c3cc(Cl)cc(Cl)c3)(C(F)(F)F)C2)ccc1F` (configuration not stated) here?
Answer: 72 to 74 °C

Question: With `CCCCC(CC)COc1ccc(N2C(C)=CC(=C=C3C(C#N)C(=C(C#N)C#N)OC3(C)C)C=C2C)cc1` (configuration not stated) as the compound, how does the melting point read?
Answer: 237 °C

Question: With `COc1ccc(C2Sc3cc(Cl)ccc3NC(=O)C2O)cc1` (configuration not stated) as the compound, how does the melting point read?
Answer: 237 to 241 °C

Reference: a melting point compilation (Tetko et al.; mined from patent text by program, amines drawn as free bases though some values may be those of a salt)
